ChEMBL document CHEMBL1152441, “Discovery of [18F]N-(2-(diethylamino)ethyl)-6-fluoronicotinamide: a melanoma positron emission tomography imaging radiotracer with high tumor to body contrast ratio and rapid renal clearance” (J Med Chem, 2009)

Columns and labels:
[1] = Biodistribution in eye of mouse B16F0 cells implanted C57BL/6J mouse assessed per gram of tissue at 0.4 to 5.5 MBq, iv after 6 hrs by gamma counter; type: ADME, organism-based; settings: in vivo
Bone [2] = experiment: Biodistribution in bone of mouse B16F0 cells implanted C57BL/6J mouse assessed per gram of tissue at 0.4 to 5.5 MBq, iv after 0.25 hrs by gamma counter; type: ADME, organism-based, Bone element; settings: in vivo
Intestine [3] = experiment: Biodistribution in intestine of mouse B16F0 cells implanted C57BL/6J mouse assessed per gram of tissue at 0.4 to 5.5 MBq, iv after 1 hr by gamma counter; type: ADME, organism-based; settings: in vivo
Bone [4] = experiment: Biodistribution in bone of mouse B16F0 cells implanted C57BL/6J mouse assessed per gram of tissue at 0.4 to 5.5 MBq, iv after 1 hr by gamma counter; type: ADME, organism-based, Bone element; settings: in vivo
Intestine [5] = experiment: Biodistribution in intestine of mouse B16F0 cells implanted C57BL/6J mouse assessed per gram of tissue at 0.4 to 5.5 MBq, iv after 0.25 hrs by gamma counter; type: ADME, organism-based; settings: in vivo
Thyroid gland [6] = experiment: Biodistribution in thyroid of mouse B16F0 cells implanted C57BL/6J mouse assessed per gram of tissue at 0.4 to 5.5 MBq, iv after 3 hrs by gamma counter; type: ADME, organism-based; settings: in vivo
Spleen [7] = experiment: Biodistribution in spleen of mouse B16F0 cells implanted C57BL/6J mouse assessed per gram of tissue at 0.4 to 5.5 MBq, iv after 0.25 hrs by gamma counter; type: ADME, organism-based; settings: in vivo
[8] = Biodistribution in tumor of mouse B16F0 cells implanted C57BL/6J mouse assessed per gram of tissue at 0.4 to 5.5 MBq, iv after 1 hr by gamma counter; type: ADME, organism-based, Neoplasm; settings: in vivo
Bone [9] = experiment: Biodistribution in bone of mouse B16F0 cells implanted C57BL/6J mouse assessed per gram of tissue at 0.4 to 5.5 MBq, iv after 6 hrs by gamma counter; type: ADME, organism-based, Bone element; settings: in vivo
Intestine [10] = experiment: Biodistribution in intestine of mouse B16F0 cells implanted C57BL/6J mouse assessed per gram of tissue at 0.4 to 5.5 MBq, iv after 6 hrs by gamma counter; type: ADME, organism-based; settings: in vivo
[11] = Biodistribution in eye of mouse B16F0 cells implanted C57BL/6J mouse assessed per gram of tissue at 0.4 to 5.5 MBq, iv after 1 hr by gamma counter; type: ADME, organism-based; settings: in vivo
Thyroid gland [12] = experiment: Biodistribution in thyroid of mouse B16F0 cells implanted C57BL/6J mouse assessed per gram of tissue at 0.4 to 5.5 MBq, iv after 1 hr by gamma counter; type: ADME, organism-based; settings: in vivo
Thyroid gland [13] = experiment: Biodistribution in thyroid of mouse B16F0 cells implanted C57BL/6J mouse assessed per gram of tissue at 0.4 to 5.5 MBq, iv after 0.25 hrs by gamma counter; type: ADME, organism-based; settings: in vivo
Stomach [14] = experiment: Biodistribution in stomach of mouse B16F0 cells implanted C57BL/6J mouse assessed per gram of tissue at 0.4 to 5.5 MBq, iv after 3 hrs by gamma counter; type: ADME, organism-based; settings: in vivo
Spleen [15] = experiment: Biodistribution in spleen of mouse B16F0 cells implanted C57BL/6J mouse assessed per gram of tissue at 0.4 to 5.5 MBq, iv after 6 hrs by gamma counter; type: ADME, organism-based; settings: in vivo
Stomach [16] = experiment: Biodistribution in stomach of mouse B16F0 cells implanted C57BL/6J mouse assessed per gram of tissue at 0.4 to 5.5 MBq, iv after 1 hr by gamma counter; type: ADME, organism-based; settings: in vivo
Lung [17] = experiment: Biodistribution in lung of mouse B16F0 cells implanted C57BL/6J mouse assessed per gram of tissue at 0.4 to 5.5 MBq, iv after 3 hrs by gamma counter; type: ADME, organism-based; settings: in vivo
[18] = Biodistribution in tumor of mouse B16F0 cells implanted C57BL/6J mouse assessed per gram of tissue at 0.4 to 5.5 MBq, iv after 3 hrs by gamma counter; type: ADME, organism-based, Neoplasm; settings: in vivo
Spleen [19] = experiment: Biodistribution in spleen of mouse B16F0 cells implanted C57BL/6J mouse assessed per gram of tissue at 0.4 to 5.5 MBq, iv after 1 hr by gamma counter; type: ADME, organism-based; settings: in vivo
Intestine [20] = experiment: Biodistribution in intestine of mouse B16F0 cells implanted C57BL/6J mouse assessed per gram of tissue at 0.4 to 5.5 MBq, iv after 3 hrs by gamma counter; type: ADME, organism-based; settings: in vivo
Stomach [21] = experiment: Biodistribution in stomach of mouse B16F0 cells implanted C57BL/6J mouse assessed per gram of tissue at 0.4 to 5.5 MBq, iv after 6 hrs by gamma counter; type: ADME, organism-based; settings: in vivo
Stomach [22] = experiment: Biodistribution in stomach of mouse B16F0 cells implanted C57BL/6J mouse assessed per gram of tissue at 0.4 to 5.5 MBq, iv after 0.25 hrs by gamma counter; type: ADME, organism-based; settings: in vivo
Thyroid gland [23] = experiment: Biodistribution in thyroid of mouse B16F0 cells implanted C57BL/6J mouse assessed per gram of tissue at 0.4 to 5.5 MBq, iv after 6 hrs by gamma counter; type: ADME, organism-based; settings: in vivo
Lung [24] = experiment: Biodistribution in lung of mouse B16F0 cells implanted C57BL/6J mouse assessed per gram of tissue at 0.4 to 5.5 MBq, iv after 0.25 hrs by gamma counter; type: ADME, organism-based; settings: in vivo
Lung [25] = experiment: Biodistribution in lung of mouse B16F0 cells implanted C57BL/6J mouse assessed per gram of tissue at 0.4 to 5.5 MBq, iv after 1 hr by gamma counter; type: ADME, organism-based; settings: in vivo
Spleen [26] = experiment: Biodistribution in spleen of mouse B16F0 cells implanted C57BL/6J mouse assessed per gram of tissue at 0.4 to 5.5 MBq, iv after 3 hrs by gamma counter; type: ADME, organism-based; settings: in vivo
[27] = Biodistribution in eye of mouse B16F0 cells implanted C57BL/6J mouse assessed per gram of tissue at 0.4 to 5.5 MBq, iv after 0.25 hrs by gamma counter; type: ADME, organism-based; settings: in vivo
[28] = Biodistribution in tumor of mouse B16F0 cells implanted C57BL/6J mouse assessed per gram of tissue at 0.4 to 5.5 MBq, iv after 6 hrs by gamma counter; type: ADME, organism-based, Neoplasm; settings: in vivo
Bone [29] = experiment: Biodistribution in bone of mouse B16F0 cells implanted C57BL/6J mouse assessed per gram of tissue at 0.4 to 5.5 MBq, iv after 3 hrs by gamma counter; type: ADME, organism-based, Bone element; settings: in vivo
Lung [30] = experiment: Biodistribution in lung of mouse B16F0 cells implanted C57BL/6J mouse assessed per gram of tissue at 0.4 to 5.5 MBq, iv after 6 hrs by gamma counter; type: ADME, organism-based; settings: in vivo
[31] = Lipophilicity, log P at pH 7.5; type: physicochemical; settings: buffer
[32] = Biodistribution in eye of mouse B16F0 cells implanted C57BL/6J mouse assessed per gram of tissue at 0.4 to 5.5 MBq, iv after 3 hrs by gamma counter; type: ADME, organism-based; settings: in vivo
[33] = Biodistribution in tumor of mouse B16F0 cells implanted C57BL/6J mouse assessed per gram of tissue at 0.4 to 5.5 MBq, iv after 0.25 hrs by gamma counter; type: ADME, organism-based, Neoplasm; settings: in vivo

Row | Compound | Drug uptake [1] | Drug uptake (Bone [2]) | Drug uptake (Intestine [3]) | Drug uptake (Bone [4]) | Drug uptake (Intestine [5]) | Drug uptake (Thyroid gland [6]) | Drug uptake (Spleen [7]) | Drug uptake [8] | Drug uptake (Bone [9]) | Drug uptake (Intestine [10]) | Drug uptake [11] | Drug uptake (Thyroid gland [12]) | Drug uptake (Thyroid gland [13]) | Drug uptake (Stomach [14]) | Drug uptake (Spleen [15]) | Drug uptake (Stomach [16]) | Drug uptake (Lung [17]) | Drug uptake [18] | Drug uptake (Spleen [19]) | Drug uptake (Intestine [20]) | also measured
1 | CCCCN(C)CCCCNC(=O)c1ccc([18F])nc1 | 15.8% | 3.89% | 5.8% | 2% | 8.2% | 2.9% | 11.2% | 4.8% | 1% | 3.1% | 12.7% | 5.4% | 10.2% | 2.4% | 4.1% | 3.3% | 3.1% | 5.3% | 7.4% | 4.2% | Drug uptake (Stomach [21]): 1.8%; Drug uptake (Stomach [22]): 8.5%; Drug uptake (Thyroid gland [23]): 2%; Drug uptake (Lung [24]): 12.1%; Drug uptake (Lung [25]): 4.5%; Drug uptake (Spleen [26]): 5.3%; Drug uptake [27]: 11.3%; Drug uptake [28]: 5.3%; Drug uptake (Bone [29]): 1.4%; Drug uptake (Lung [30]): 2.2%; logD [31]: 1.52; Drug uptake [32]: 14.3%; Drug uptake [33]: 4%
2 | CCN(CC)CCNC(=O)c1cccnc1[18F] | 27.4% | 4.8% | 7.1% | 3.4% | 7.8% | 2.1% | 11.8% | 14.6% | 5.6% | 3.6% | 38% | 2.2% | 4.5% | 1.9% | 0.5% | 6.8% | 0.35% | 17.3% | 9.2% | 7.1% | Drug uptake (Stomach [21]): 0.7%; Drug uptake (Stomach [22]): 14.7%; Drug uptake (Thyroid gland [23]): 3.2%; Drug uptake (Lung [24]): 5%; Drug uptake (Lung [25]): 1.5%; Drug uptake (Spleen [26]): 2.5%; Drug uptake [27]: 36.7%; Drug uptake [28]: 4.8%; Drug uptake (Bone [29]): 4.6%; Drug uptake (Lung [30]): 0.2%; logD [31]: 0.94; Drug uptake [32]: 36.3%; Drug uptake [33]: 10.6%
